# Source: US9409952B2, “Peptide-compound cyclization method” (Chugai Seiyaku Kabushiki Kaisha, priority 2011, dated 2016)
# Like-named read-outs stand apart in the source and are kept apart here. Starred links: 1 amine or outer side, 2 acyl side, 3 side chain; linkers in the order of their positions; H or OH if unused. Positions of bridges follow the written chain, without caps; N, C: chain ends. Non-standard residues stand in square brackets, D forms with d. Residues, ends and D or L forms follow the SMILES beside them. *: point of attachment. NMeF = CN[C@@H](Cc1ccccc1)C(=O)O; NMeGABA = CN(CCCC(=O)[*:2])[*:1]; NMeI = CC[C@H](C)[C@H](NC)C(=O)O; hPhe = N[C@@H](CCc1ccccc1)C(=O)O; NMeβAla = CN(CCC(=O)[*:2])[*:1]; NMeL = CN[C@@H](CC(C)C)C(=O)O; NMeV = CN[C@H](C(=O)O)C(C)C; NMeA = CN[C@@H](C)C(=O)O; Piperidide = C1CCN(*)CC1; dNMeA = CN[C@H](C)C(=O)O; β3hA = C[C@H](N)CC(=O)O; Sar = CNCC(=O)O; tBu = CC(C)(C)*
# What was measured:
# [1] = Metabolic stability in human hepatic microsome; assay type: in vitro ADME; details: microsomes
# [2] = PAMPA (parallel artificial membrane permeability assay); assay type: in vitro ADME; details: PAMPA
# Procedure, shortened: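 Artificial membrane was 10% (w/v) egg lecithin plus 0.5% (w/v) cholesterol in dodecane on a PVDF filter. A 10 mM DMSO stock was added at 0.5% (v/v) to donor buffer (50 mM MOPSO, pH 6.5, 5.0% glycocholic acid). After 18 h at 37 °C, LC/MS or LC/UV gave donor and acceptor levels for Pe.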
# [3] = pH 7.4, human hepatic microsome, NADPH(+), read-out: CL NADPH(+)
# [4] = membrane permeation rate (Pe), 50 mM MOPSO buffer pH 6.5 with 5.0% glycocholic acid, 37° C., 18 hours, read-out: iPAMPA Pe
Structure (SMILES),"microsomal CLint at 1 uM [1, 3] [µL/min/mg]","Papp at 18 hours, 50 µM [2, 4] [×10⁻⁶ cm/s]","microsomal CLint at 1 uM ([1]; human, pH 7.4, CL NADPH(+)) [µL/min/mg]","Papp at 18 hours, 50 µM ([2]; pH 6.5) [×10⁻⁶ cm/s]"
CC[C@H](C)[C@@H]1NC(=O)[C@H](CC(C)C)N(C)C(=O)[C@H](CC(C)C)N(C)C(=O)[C@H](C)N(C)C(=O)[C@H]([C@@H](C)O)NC(=O)[C@H](C(C)C)N(C)C(=O)[C@H](Cc2ccccc2)NC(=O)CN(C)C(=O)[C@H](C)N(C)C(=O)C[C@@H](C(=O)N2CCCCC2)NC1=O [DP-439] ([NMeA][Sar]F[NMeV]T[NMeA][NMeL][NMeL]ID-Piperidide; lactam N-10),139,34,–,–
CC[C@H](C)[C@@H]1NC(=O)[C@H](C)N(C)C(=O)[C@H]([C@@H](C)O)NC(=O)[C@H](CC(C)C)N(C)C(=O)[C@H](Cc2ccccc2)NC(=O)[C@H](C(C)C)N(C)C(=O)[C@@H](C)N(C)C(=O)C[C@@H](C(=O)N(C)[C@@H](Cc2ccccc2)C(=O)N[C@@H](C)C(=O)N2CCCCC2)NC(=O)[C@H](C)N(C)C(=O)[C@H](CC(C)C)N(C)C1=O [DP-453] ([dNMeA][NMeV]F[NMeL]T[NMeA]I[NMeL][NMeA]D[NMeF]A-Piperidide; lactam N-10),64,25,–,–
CC(C)[C@@H]1NC(=O)[C@H](Cc2ccccc2)N(C)C(=O)[C@H](C)N(C)C(=O)[C@H]([C@@H](C)O)NC(=O)[C@H](C)N(C)C(=O)CNC(=O)[C@H](Cc2ccccc2)NC(=O)[C@@H](C)N(C)C(=O)C[C@@H](C(=O)N(C)[C@@H](Cc2ccccc2)C(=O)N(C)[C@@H](Cc2ccccc2)C(=O)N[C@@H](C)C(=O)N2CCCCC2)NC(=O)[C@H](C(C)C)N(C)C1=O [DP-504] ([dNMeA]FG[NMeA]T[NMeA][NMeF]V[NMeV]D[NMeF][NMeF]A-Piperidide; lactam N-10),216,31,–,–
CC(C)C[C@H]1C(=O)N(C)[C@@H](C)C(=O)N(C)[C@@H](CC(C)C)C(=O)N[C@H](C(=O)N2CCCCC2)CC(=O)N(C)[C@H](C)C(=O)N(C)[C@@H](Cc2ccccc2)C(=O)N[C@@H]([C@@H](C)O)C(=O)N(C)[C@@H](C)C(=O)N(C)[C@@H](CC(C)C)C(=O)NCC(=O)N1C [DP-435] ([dNMeA][NMeF]T[NMeA][NMeL]G[NMeL][NMeA][NMeL]D-Piperidide; lactam N-10),41,16,–,–
CC(C)C[C@H]1C(=O)N(C)[C@@H](C(C)C)C(=O)N[C@@H](Cc2ccccc2)C(=O)N[C@H](C(=O)N2CCCCC2)CC(=O)N[C@H](C(C)C)C(=O)N[C@@H](COC(C)(C)C)C(=O)N(C)[C@@H](CC(C)C)C(=O)N[C@@H]([C@@H](C)O)C(=O)N(C)[C@@H](Cc2ccccc2)C(=O)NCC(=O)N1C [DP-171] ([dV]S(tBu)[NMeL]T[NMeF]G[NMeL][NMeV]FD-Piperidide; lactam N-10),191,50,–,–
CC(C)C[C@H]1C(=O)N(C)[C@@H](Cc2ccccc2)C(=O)NCC(=O)N[C@H](C(=O)N2CCCCC2)CC(=O)N(C)CCCC(=O)N[C@@H]([C@@H](C)O)C(=O)N(C)[C@@H](C)C(=O)N(C)[C@@H](Cc2ccccc2)C(=O)N[C@@H](COC(C)(C)C)C(=O)N1C [DP-129] ([NMeGABA]T[NMeA][NMeF]S(tBu)[NMeL][NMeF]GD-Piperidide; lactam N-9),120,17,–,–
CC[C@H](C)[C@H]1C(=O)N[C@@H](COC(C)(C)C)C(=O)N(C)[C@@H](C(C)C)C(=O)N[C@@H](C)CC(=O)N(C)[C@@H](C)C(=O)N(C)[C@@H](Cc2ccccc2)C(=O)N[C@@H](CC(C)C)C(=O)N(C)[C@@H](CC(C)C)C(=O)N[C@@H]([C@@H](C)O)C(=O)N(C)CC(=O)N1C [DP-820] (cyclo(L[NMeL]T[Sar][NMeI]S(tBu)[NMeV][β3hA][NMeA][NMeF])),511,48,–,–
CC(C)C[C@@H]1NC(=O)[C@H](CC(C)C)N(C)C(=O)CCN(C)C(=O)C[C@@H](C(=O)N(C)[C@@H](Cc2ccccc2)C(=O)N[C@@H](C)C(=O)N2CCCCC2)NC(=O)[C@H](C)N(C)C(=O)[C@H]([C@@H](C)O)NC(=O)[C@H](Cc2ccccc2)NC(=O)[C@H](CC(C)C)N(C)C(=O)CNC(=O)[C@H](Cc2ccccc2)N(C)C1=O [DP-446] ([NMeβAla][NMeL]L[NMeF]G[NMeL]FT[NMeA]D[NMeF]A-Piperidide; lactam N-10),104,40,–,–
CC[C@H](C)[C@H]1C(=O)N[C@@H]([C@@H](C)O)C(=O)N[C@@H](Cc2ccccc2)C(=O)N2CCC[C@H]2C(=O)NCC(=O)N(C)[C@@H](CC(C)C)C(=O)N[C@H](C(=O)N2CCCCC2)CC(=O)N[C@H](C)C(=O)N[C@@H](Cc2ccccc2)C(=O)N(C)[C@@H](CC(C)C)C(=O)N[C@@H](CC(C)C)C(=O)N1C [DP-227] ([dA]F[NMeL]L[NMeI]TFPG[NMeL]D-Piperidide; lactam N-11),–,–,141,38
CC(C)C[C@@H]1NC(=O)[C@H](C)NC(=O)C[C@@H](C(=O)N(C)[C@@H](C)C(=O)N[C@H](C(=O)N(C)[C@@H](Cc2ccccc2)C(=O)N(C)[C@@H](CC(C)C)C(=O)N[C@@H](C)C(=O)N2CCCCC2)[C@@H](C)O)NC(=O)[C@H](Cc2ccccc2)N(C)C(=O)[C@H](CC(C)C)N(C)C(=O)[C@H](C)NC(=O)[C@H](Cc2ccccc2)N(C)C(=O)[C@H](CC(C)C)N(C)C1=O [DP-574] (AL[NMeL][NMeF]A[NMeL][NMeF]D[NMeA]T[NMeF][NMeL]A-Piperidide; lactam N-8),113,1.2,–,–
CC(C)C[C@H]1C(=O)N(C)[C@@H](C)C(=O)N(C)[C@@H](CC(C)C)C(=O)N[C@H](C(=O)N2CCCCC2)CC(=O)N(C)[C@@H](C)C(=O)N(C)[C@@H](Cc2ccccc2)C(=O)N[C@@H]([C@@H](C)O)C(=O)N(C)[C@@H](C)C(=O)N(C)[C@@H](CC(C)C)C(=O)NCC(=O)N1C [DP-489] ([NMeA][NMeF]T[NMeA][NMeL]G[NMeL][NMeA][NMeL]D-Piperidide; lactam N-10),59,24,–,–
CC[C@H](C)[C@H]1C(=O)N(C)[C@@H](Cc2ccccc2)C(=O)N[C@@H](CC(C)C)C(=O)N[C@H](C(=O)N2CCCCC2)CC(=O)N(C)CCCC(=O)N(C)[C@@H](CC(C)C)C(=O)N[C@@H]([C@@H](C)O)C(=O)N(C)[C@@H](Cc2ccccc2)C(=O)N(C)[C@@H](CC(C)C)C(=O)N(C)[C@@H](CC(C)C)C(=O)N[C@@H](C)C(=O)N1C [DP-248] ([NMeGABA][NMeL]T[NMeF][NMeL][NMeL]A[NMeI][NMeF]LD-Piperidide; lactam N-11),36,2.6,–,–
CC[C@H](C)[C@@H]1NC(=O)CN(C)C(=O)[C@H](Cc2ccccc2)N(C)C(=O)[C@H]([C@@H](C)O)NC(=O)[C@H](CC(C)C)N(C)C(=O)[C@H](C)N(C)C(=O)CCCN(C)C(=O)C[C@@H](C(=O)N(C)[C@@H](Cc2ccccc2)C(=O)N[C@@H](C)C(=O)N2CCCCC2)NC(=O)[C@H](C(C)C)N(C)C(=O)[C@H](CC(C)C)N(C)C1=O [DP-374] ([NMeGABA][NMeA][NMeL]T[NMeF][Sar]I[NMeL][NMeV]D[NMeF]A-Piperidide; lactam N-10),53,24,–,–
CC(C)C[C@@H]1NC(=O)[C@H](C(C)C)N(C)C(=O)[C@H](CCc2ccccc2)NC(=O)CN(C)C(=O)[C@H]([C@@H](C)O)NC(=O)[C@H](C)N(C)C(=O)[C@H](CC(C)C)N(C)C(=O)[C@@H](C(C)C)NC(=O)C[C@@H](C(=O)N2CCCCC2)NC(=O)[C@H](C)NC(=O)[C@H](CC(C)C)N(C)C1=O [DP-736] ([dV][NMeL][NMeA]T[Sar][hPhe][NMeV]L[NMeL]AD-Piperidide; lactam N-11),47,27,–,–
CC[C@H](C)[C@@H]1NC(=O)[C@H](C)N(C)C(=O)CCCN(C)C(=O)C[C@@H](C(=O)N2CCCCC2)NC(=O)[C@H](CC(C)C)N(C)C(=O)[C@H](C)N(C)C(=O)[C@H]([C@@H](C)O)NC(=O)[C@H](Cc2ccccc2)N(C)C(=O)[C@H](Cc2ccccc2)N(C)C(=O)[C@H](CC(C)C)N(C)C1=O [DP-261] ([NMeGABA][NMeA]I[NMeL][NMeF][NMeF]T[NMeA][NMeL]D-Piperidide; lactam N-10),84,27,–,–
CC[C@H](C)[C@@H]1NC(=O)[C@H](C)N(C)C(=O)[C@H]([C@@H](C)O)NC(=O)CN(C)C(=O)[C@H](C)N(C)C(=O)[C@H](C)NC(=O)[C@H](C)N(C)C(=O)[C@@H](C)N(C)C(=O)C[C@@H](C(=O)N(C)[C@@H](Cc2ccccc2)C(=O)N(C)[C@@H](Cc2ccccc2)C(=O)N[C@@H](C)C(=O)N2CCCCC2)NC(=O)[C@H](Cc2ccccc2)N(C)C1=O [DP-508] ([dNMeA][NMeA]A[NMeA][Sar]T[NMeA]I[NMeF]D[NMeF][NMeF]A-Piperidide; lactam N-10),11,2.5,–,–
CC[C@H](C)[C@@H]1NC(=O)[C@H](C)NC(=O)C[C@@H](C(=O)N2CCCCC2)NC(=O)[C@H](Cc2ccccc2)NC(=O)[C@H](C(C)C)N(C)C(=O)[C@H](CC(C)C)NC(=O)[C@H](C)N(C)C(=O)[C@H](Cc2ccccc2)N(C)C(=O)[C@H]([C@@H](C)O)NC(=O)CN(C)C(=O)[C@H](CC(C)C)N(C)C(=O)[C@@H]2CCCN2C1=O [DP-9] (AIP[NMeL][Sar]T[NMeF][NMeA]L[NMeV]FD-Piperidide; lactam N-12),18,13,–,–
